The data set is described as follows: Solubility evaluation of photoacid generators in organic solvents. Format: physicochemical. Conditions: 2 weight percent, room temperature; for Solubility in 2-Heptanone: solvent 2-Heptanone; for Solubility in PGMEA: solvent PGMEA; for Solubility in 2-Hepanone/n-Butyl Propionate (1:1 w/w): solvent blend 1:1 w/w; for Solubility in n-Butyl Acetate: solvent n-Butyl Acetate. As to the method:
The photoacid generators were evaluated for solubility in a selection of organic solvents. Solubility of each of the compounds PAG-2, PAG-A1, PAG-A2 were obtained for attempts to completely dissolve the PAG at 2 weight percent at room temperature in different organic solvents and solvent blends. The results for the solubility tests (i.e., where the PAG is observed to be completely soluble in the solvent, or is only partially soluble or insoluble based on the presence of insoluble material) are shown in Table 1, where “O” indicates solubility at 2 weight percent, and “X” indicates partial solubility or insolubility at 2 weight percent.

Take “4-(2-oxo-2-(2,2,2′,2′-tetramethyl-4,4′-bis(1,3-dioxolan)-5-yl-methoxyethoxy)phenyl)diphenylsulfonium 1-adamantyl-3,3,4,4-tetrafluorobutane sulfonate [PAG-A1]”: the “Solubility in 2-Heptanone” value was “◯”, the “Solubility in PGMEA” value is on record as “◯”, the “Solubility in 2-Hepanone/n-Butyl Propionate (1:1 w/w)” value (“Solubility … (1:1 w/w)” for short) was “◯” and the “Solubility in n-Butyl Acetate” value was “◯”.
As to `CC1(C)OCC(C2OC(C)(C)OC2COC(=O)COc2ccc([S+](c3ccccc3)c3ccccc3)cc2)O1.O=C(OCC12CC3CC(CC(O)(C3)C1)C2)C(F)(F)S(=O)(=O)[O-]` (stereo not drawn) [PAG-A2, 4-(2-oxo-2-(2,2,2′,2′-tetramethyl-4,4′-bis(1,3-dioxolan)-5-yl-methoxyethoxy)phenyl)diphenylsulfonium 1,1-difluoro-2-(3-hydroxyadamantan-1-yl-methoxy)-2-oxoethanesulfonate], the “Solubility in 2-Heptanone” value was “◯”, the “Solubility in PGMEA” value was “◯”, the “Solubility … (1:1 w/w)” value was “◯” and the “Solubility in n-Butyl Acetate” value is recorded as “◯”.
For “Triphenylsulfonium 1,1-difluoro-2-((-3-hydroxyadamantan-1-yl)methoxy)-2-oxoethanesulfonate [C. PAG 2, reference compound]”, the “Solubility in 2-Heptanone” value was “X (“X” indicates partial solubility or insolubility at 2 weight percent)”, the “Solubility in PGMEA” value is on record as “X (“X” indicates partial solubility or insolubility at 2 weight percent)”, the “Solubility … (1:1 w/w)” value is given as “X (“X” indicates partial solubility or insolubility at 2 weight percent)” and the “Solubility in n-Butyl Acetate” value was “X (“X” indicates partial solubility or insolubility at 2 weight percent)”.

The record behind these values is US9046767B2, “Photoacid generator, photoresist, coated substrate, and method of forming an electronic device” (ROHM AND HAAS ELECTRONIC MATERIALS LLC, priority 2013, dated 2015).
